Data: ChEMBL document CHEMBL5634135, “Design, synthesis, and biological evaluation of quinoline-piperazine/pyrrolidine derivatives as possible antileishmanial agents” (Eur J Med Chem, 2023)
Activity calls are given as the source filed them. No cut-off for these calls is given here.

What was measured:
Leishmania donovani [1] = assay: Antileishmanial activity against amastigote form of luciferase expressing Leishmania donovani MHOM/IN/80/Dd8 infected in mouse J774.A1 cells assessed as inhibition of parasite growth measured after 72 hrs by luciferase reporter gene assay; format: functional, organism-based; details: MHOM/IN/80/Dd8, J774.A1, 72 h
[2] = Cytotoxicity against mouse J774.A1 cells assessed as reduction in cell viability incubated for 48 hrs by MTT assay; format: toxicity, cell-based
[3] = Safety index, ratio of CC50 for cytotoxicity against mouse J774.A1 cells to IC50 for antileishmanial activity against amastigote form of luciferase expressing Leishmania donovani MHOM/IN/80/Dd8 infected in mouse J774.A1; format: toxicity, cell-based; details: read-out: Ratio CC50/IC50
Leishmania donovani [4] = assay: Antileishmanial activity against amastigote form of luciferase expressing Leishmania donovani MHOM/IN/80/Dd8 infected in mouse J774.A1 cells assessed as inhibition of parasite growth at 50 uM measured after 72 hrs by luciferase reporter gene assay; format: functional, organism-based
[5] = Cmax in golden hamster at 50 mg/kg, ip measured for 24 hrs by LC-MS/MS analysis; format: ADME, organism-based, Mesocricetus auratus; details: in vivo
[6] = Toxicity against golden hamster infected with amastigote form of Leishmania donovani assessed as discomfort at 50 mg/kg, ip administered for 5 days; format: organism-based, Mesocricetus auratus; details: in vivo, 120 h, time 5 day
[7] = MRT in golden hamster at 50 mg/kg, ip measured for 24 hrs by LC-MS/MS analysis; format: ADME, organism-based, Mesocricetus auratus; details: in vivo
[8] = Clearance in golden hamster at 50 mg/kg, ip measured for 24 hrs by LC-MS/MS analysis; format: ADME, organism-based, Mesocricetus auratus; details: in vivo
Leishmania donovani [9] = assay: Antileishmanial activity against amastigote form of Leishmania donovani infected in golden hamster assessed as reduction in parasite load in spleen at 50 mg/kg, ip administered for 5 days and measured on day 7 post-drug treatment by Giemsa staining based analysis; format: functional; details: 288 h, time 12 day
Leishmania donovani [10] = assay: Antileishmanial activity against amastigote form of Leishmania donovani infected in golden hamster assessed as reduction in parasite load in spleen at 50 mg/kg, ip administered for 5 days and measured on day 28 post-dug treatment by Giemsa staining based analysis; format: functional; details: 792 h, time 33 day
[11] = Toxicity against golden hamster infected with amastigote form of Leishmania donovani assessed as skin rashes at 50 mg/kg, ip administered for 5 days; format: organism-based, Mesocricetus auratus; details: in vivo, 120 h, time 5 day
[12] = Tmax in golden hamster at 50 mg/kg, ip measured for 24 hrs by LC-MS/MS analysis; format: ADME, organism-based, Mesocricetus auratus; details: in vivo
[13] = Toxicity against golden hamster infected with amastigote form of Leishmania donovani assessed as animal's death at 50 mg/kg, ip administered for 5 days; format: organism-based, Mesocricetus auratus; details: in vivo, 120 h, time 5 day
[14] = AUC in golden hamster at 50 mg/kg, ip measured for 24 hrs by LC-MS/MS analysis; format: ADME, organism-based, Mesocricetus auratus; details: in vivo
[15] = Half life in golden hamster at 50 mg/kg, ip measured for 24 hrs by LC-MS/MS analysis; format: ADME, organism-based, Mesocricetus auratus; details: in vivo
[16] = Volume of distribution in golden hamster at 50 mg/kg, ip measured for 24 hrs by LC-MS/MS analysis; format: ADME, organism-based, Mesocricetus auratus; details: in vivo
Leishmania donovani [17] = assay: Antileishmanial activity against Leishmania donovani assessed as inhibition of parasite growth; format: functional, organism-based
Leishmania infantum [18] = assay: Antileishmanial activity against amastigote form of Leishmania infantum BCN150 overexpressing iRFP assessed as inhibition of parasite growth measured after 52 hrs; format: functional, organism-based; details: BCN150, 52 h
Leishmania infantum [19] = assay: Antileishmanial activity against promastigote form of Leishmania infantum BCN150 overexpressing iRFP assessed as inhibition of parasite growth measured after 52 hrs; format: functional, organism-based; details: BCN150, 52 h

SMILES | IC50 (Leishmania donovani [1]) [µM] | CC50 at 48 h [2] [µM] | selectivity ratio [3] | inhibition (Leishmania donovani [4]) | other results
OC(COc1ccc(-c2cc(-c3ccccc3)c3ccccc3n2)cc1)CN1CCN(c2ccccc2)CC1 (stereo not drawn) | 5.39 | 21.5 | 3.98 |  | 
OC(COc1ccc(-c2cc(-c3ccccc3Cl)c3cc(Cl)ccc3n2)cc1)CN1CCN(c2ccccn2)CC1 (stereo not drawn) | 5.56 | 41.9 | 7.52 |  | 
Cc1ccc2c(-c3ccccc3)cc(-c3ccc(OCC(O)CN4CCCC4)cc3)nc2c1 (stereo not drawn) |  |  |  | inactive | 
OC(COc1ccc(-c2cc(-c3ccccc3)c3cc(Cl)ccc3n2)cc1)CN1CCCC1 (stereo not drawn) | 2.09 | 21.4 | 10.3 |  | Cmax [5]: 17600 ng/mL; Activity [6]: Non-Toxic; MRT [7]: 6.35 h; CL/F [8]: 9.5 mL/min/kg; inhibition in vivo at 50 mg/kg (Leishmania donovani [9]): 27.8%; inhibition in vivo at 50 mg/kg (Leishmania donovani [10]): 49.3%; Activity [11]: Non-Toxic; Tmax [12]: 2 h; Activity [13]: Non-Toxic; AUC at 24 h [14]: 85000 ng·h/mL; half-life [15]: 4.67 h; Vd [16]: 3.88 L/kg
Cc1ccc(Cl)cc1N1CCN(CC(O)COc2ccc(-c3cc(-c4ccccc4)c4ccccc4n3)cc2)CC1 (stereo not drawn) |  |  |  | inactive | 
CCCCCCCCCCCCCCCCOP(=O)([O-])OCC[N+](C)(C)C [MILTEFOSINE] | 9.25 |  | 5.76 |  | 
OC(COc1ccc(-c2cc(-c3ccccc3F)c3cc(Cl)ccc3n2)cc1)CN1CCN(c2cccc(Cl)c2Cl)CC1 (stereo not drawn) |  |  |  | inactive | 
O=[N+]([O-])c1ccc2nc(-c3ccc(OCC(O)CN4CCN(c5cccc(Cl)c5Cl)CC4)cc3)cc(-c3ccccc3)c2c1 (stereo not drawn) |  |  |  | inactive | 
NC(=O)C1CCN(CC(O)COc2ccc(-c3cc(-c4ccccc4)c4ccccc4n3)cc2)CC1 (stereo not drawn) |  |  |  | inactive | 
O=C(c1ccco1)N1CCN(CC(O)COc2ccc(-c3cc(-c4ccccc4)c4ccccc4n3)cc2)CC1 (stereo not drawn) | 8.22 | 21.8 | 2.64 |  | 
COc1ccc(N2CCN(CC(O)COc3ccc(-c4cc(-c5ccccc5Cl)c5cc(Cl)ccc5n4)cc3)CC2)cc1 (stereo not drawn) |  |  |  | inactive | 
OC(COc1ccc(-c2cc(-c3ccccc3)c3ccccc3n2)cc1)Cn1ccnc1 (stereo not drawn) | 3.37 | 34 | 10.1 |  | 
OC(COc1ccc(-c2cc(-c3ccccc3)c3ccccc3n2)cc1)CN1CCN(c2ccccn2)CC1 (stereo not drawn) | 7.01 | 27.2 | 3.88 |  | 
CCOC(=O)N1CCN(CC(O)COc2ccc(-c3cc(-c4ccccc4)c4cc(Cl)ccc4n3)cc2)CC1 (stereo not drawn) |  |  |  | inactive | 
OC(COc1ccc(-c2ccc3ccccc3n2)cc1)CN1CCCC1 (stereo not drawn) | 8.89 | 54.7 | 6.15 |  | 
OC(COc1ccc(-c2ccc3ccccc3n2)cc1)CN1CCN(c2cccc(Cl)c2Cl)CC1 (stereo not drawn) |  |  |  | inactive | 
OC(COc1ccc(-c2cc(-c3ccccc3)c3cc(Cl)ccc3n2)cc1)CN1CCN(c2cccc(Cl)c2Cl)CC1 (stereo not drawn) |  |  |  | inactive | 
O=C(c1ccco1)N1CCN(CC(O)COc2ccc(-c3cc(-c4ccccc4Cl)c4cc(Cl)ccc4n3)cc2)CC1 (stereo not drawn) |  |  |  | inactive | 
OC(COc1ccc(-c2cc(-c3ccccc3)c3ccccc3n2)cc1)CN1CCN(c2ccccc2F)CC1 (stereo not drawn) |  |  |  | inactive | 

SMILES | IC50 (Leishmania donovani [1]) [µM] | CC50 at 48 h [2] [µM] | selectivity ratio [3] | inhibition (Leishmania donovani [4]) | other results
OC(COc1ccc(-c2cc(-c3ccccc3)c3ccc(Br)cc3n2)cc1)CN1CCN(c2cccc(Cl)c2Cl)CC1 (stereo not drawn) |  |  |  | inactive | 
OC(COc1ccc(-c2cc(-c3ccccc3Cl)c3cc(Cl)ccc3n2)cc1)CN1CCN(c2ccccc2)CC1 (stereo not drawn) |  |  |  | inactive | 
Cc1ccc(Cl)cc1N1CCN(CC(O)COc2ccc(-c3cc(-c4ccccc4Cl)c4cc(Cl)ccc4n3)cc2)CC1 (stereo not drawn) |  |  |  | inactive | 
OC(COc1ccc(-c2cc(-c3ccccc3)c3ccc(Br)cc3n2)cc1)CN1CCCC1 (stereo not drawn) | 5.32 | 49.7 | 9.34 |  | 
Cc1cc(-c2ccc(OCC(O)CN3CCN(c4cccc(Cl)c4Cl)CC3)cc2)nc2ccccc12 (stereo not drawn) |  |  |  | inactive | 
Cc1ncc([N+](=O)[O-])n1CC(O)COc1ccc(-c2cc(-c3ccccc3)c3ccccc3n2)cc1 (stereo not drawn) |  |  |  | inactive | 
O=C(c1ccco1)N1CCN(CC(O)COc2ccc(-c3cc(-c4ccccc4)c4cc(Cl)ccc4n3)cc2)CC1 (stereo not drawn) | 8.13 | 57.8 | 7.1 |  | 
Cc1ccc2c(-c3ccccc3)cc(-c3ccc(OCC(O)CN4CCN(c5cccc(Cl)c5Cl)CC4)cc3)nc2c1 (stereo not drawn) |  |  |  | inactive | 
NC(CC(=O)N1CC(CO)C(c2ccc(Cl)cc2)C1)Cc1ccc(Cl)cc1 (stereo not drawn) |  |  |  |  | IC50 (Leishmania donovani [17]): 0.093 µM
OC(COc1ccc(-c2cc(-c3ccccc3)c3cc(Cl)ccc3n2)cc1)CN1CCN(c2ccccc2)CC1 (stereo not drawn) |  |  |  | inactive | 
OC(COc1ccc(-c2cc(-c3ccccc3)c3ccccc3n2)cc1)CN1CCCC1 (stereo not drawn) | 4.38 | 20.8 | 4.73 |  | 
COc1ccccc1N1CCN(C(=O)CN(Cc2ccccc2)c2ccc(Cl)cc2)CC1 |  |  |  |  | IC50 (Leishmania infantum [18]): 44.1 µM; IC50 (Leishmania infantum [19]): 3.61 µM
OC(COc1ccc(-c2cc(-c3ccccc3Cl)c3cc(Cl)ccc3n2)cc1)CN1CCN(c2ccccc2F)CC1 (stereo not drawn) |  |  |  | inactive | 
OC(COc1ccc(-c2cc(-c3ccccc3F)c3cc(Cl)ccc3n2)cc1)CN1CCCC1 (stereo not drawn) | 2.4 | 22.7 | 9.41 |  | 
OC(COc1ccc(-c2cc(-c3ccccc3)c3ccccc3n2)cc1)CN1CCN(c2cccc(Cl)c2Cl)CC1 (stereo not drawn) |  |  |  | inactive | 
OC(COc1ccc(-c2cc(-c3ccccc3)c3ccccc3n2)cc1)Cn1cncn1 (stereo not drawn) |  |  |  | inactive | 
OC(COc1ccc(-c2cc(-c3ccccc3Cl)c3cc(Cl)ccc3n2)cc1)CN1CCN(c2ccccc2Cl)CC1 (stereo not drawn) |  |  |  | inactive | 
O=[N+]([O-])c1ccc2nc(-c3ccc(OCC(O)CN4CCCC4)cc3)cc(-c3ccccc3)c2c1 (stereo not drawn) |  |  |  | inactive | 
OC(COc1ccc(-c2cc(-c3ccccc3Cl)c3cc(Cl)ccc3n2)cc1)CN1CCN(c2cccc(Cl)c2Cl)CC1 (stereo not drawn) | 5.39 | 63.5 | 11.8 |  | Cmax [5]: 9930 ng/mL; Activity [6]: Non-Toxic; MRT [7]: 5.56 h; CL/F [8]: 25.8 mL/min/kg; inhibition in vivo at 50 mg/kg (Leishmania donovani [9]): 40.7%; inhibition in vivo at 50 mg/kg (Leishmania donovani [10]): 56.3%; Activity [11]: Non-Toxic; Tmax [12]: 2 h; Activity [13]: Non-Toxic; AUC at 24 h [14]: 32900 ng·h/mL; half-life [15]: 5 h; Vd [16]: 11.25 L/kg
